# According to patent publication US8604048B2, “Pyridocarbazole type compounds and applications thereof” (Centre National de la Recherche Scientifique, priority 2009, dated 2013):
# Legend:
# [1] = system: HeLa cells; assay: Cell growth test (MTT), HeLa; format: cell-based; conditions: Homo sapiens, MTT test after 48 h, read-out: IC50 (concentration necessary to inhibit 50% of cell growth)
# Method: (§1) The cell growth tests are carried out in transparent 96-well microplates (Greiner) after having seeded 100 μl/well of a cell solution having 2·10^5 cells/ml to 5·10^5 cells/ml (depending on the cell lines). After incubating for 24 h at 37° C. with 5% CO2, the culture medium is removed and replaced with solutions of the molecule to be tested at various concentrations. The cells are incubated with these molecules for an additional 48 h at 37° C. with 5% CO2. After elimination of the medium, the cells are washed with blank RPMI (Gibco, Invitrogen) then incubated with 3-(4,5-dimethylthiazol-2-yl)-2,5-diphenyltetrazolium bromide or MTT (0.5 mg/ml final concentration) for 4 h at 37° C. with 5% CO2. MTT (Sigma Aldrich) makes it possible to estimate the viability of the cells by measuring the activity of a mitochondrial enzyme. Indeed, in living cells, mitochondrial dehydrogenases are capable of cleaving the tetrazolium ring, thus leading to the formation of formazan crystals that are insoluble in an aqueous medium. These crystals are dissolved with the addition of a solubilizing solution (isopropanol, 10% Triton X100, 0.1 N HCl). After stirring, the absorbance is measured at 570 nm using the FLUOstar OPTIMA microplate reader. […]
# (§2) The viability of the cells was evaluated using an MTT test after 48 h of exposure with various concentrations of molecules (from 100 μM to 0.001 μM). […]
# [2] = system: MES-SA cells; assay: Cell growth test (MTT), MES-SA; format: cell-based; conditions: Homo sapiens, MTT test after 48 h, read-out: IC50 (concentration necessary to inhibit 50% of cell growth)
# Method: as §1, §2
# [3] = system: NCI-H460 cells; assay: Cell growth test (MTT), NCI-H460; format: cell-based; conditions: Homo sapiens; NCI-H460, MTT test after 48 h; read-out: IC50 (concentration necessary to inhibit 50% of cell growth)
# Method: as §1, §2
# [4] = system: 786-O cells; assay: Cell growth test (MTT), 786-O; format: cell-based; conditions: Homo sapiens, 786-0, MTT test after 48 h, read-out: IC50 (concentration necessary to inhibit 50% of cell growth)
# Method: as §1, §2
# [5] = system: MES-SA DX5 cells; assay: Cell growth test (MTT), MES-SA DX5; format: cell-based; conditions: Homo sapiens; MES-SA DX5 (multi-drug resistant, P-glycoprotein), MTT test after 48 h; read-out: IC50 (concentration necessary to inhibit 50% of cell growth)
# Method: as §1, §2
# [6] = system: purified tubulin; assay: In vitro assembly of purified tubulin; format: biochemical; conditions: tubulin 1 mg/ml; Compound 1 at 25, 50, 100 μM
# Method: FIG. 5 compares the effects of the Compound 1 of the invention with the effect of paclitaxel (Taxol®) on the assembly of the tubulin purified in vitro. Purified tubulin (1 mg/ml) is incubated in PEM buffer in the presence of GTP (1 mM), MgCl2 (5 mM), DAPI (10 μM) at 37° C. The effect of Compound 1 of the invention at various concentrations (×25 μM, ⊚ 50 μM and Δ 100 μM) is compared to that of paclitaxel (Taxol®) (▪) and of DMSO ( ? );
# In order to know whether Compound 1 of the invention exerts its stabilizing effect via a direct action on tubulin, such as paclitaxel does, or by means an effector, its effect on the in vitro assembly of tubulin in microtubules has been analyzed. The first experiments were carried out on purified tubulin (1 mg/ml).
# [7] = system: actin network of HeLa cells; assay: Stability of the actin network to a depolymerization induced by latrunculin B; format: cell-based, Human; conditions: HeLa cells, confocal microscope
# Method: 7. a step of analysis of the effect of the compound to be tested on the actin network, via incubation of HeLa cells with the compound to be tested. […] When the actin network is stabilized, the latrunculin-induced depolymerization of the actin network is limited.
# The cells are grown on glass coverslips and incubated as for the tubulin staining. After elimination of the medium, the cells are washed with warm PBS then fixed, by addition of a solution of PBS/3.7% formaldehyde for 30 minutes at 37° C. The cells are washed with PBS then permeabilized with a solution of PBS/0.2% Triton X100 for 15 minutes at room temperature. After another washing with PBS, the cells are incubated with a solution of PBS/1% BSA for 30 minutes at room temperature. The cells are then incubated with phalloidin (0.165 μM final concentration) labelled with Alexa Fluor® 488 (Molecular Probes, Invitrogen) for 20 minutes at room temperature. The cells are washed a final time with PBS then dehydrated with pure ethanol. Finally, the cells are fixed to slides using a Fluorsave™ mounting solution.
# 8) Test for the Action on the Actin Cytoskeleton: Protocol for Evaluating, in Cells, the Stability of the Actin Network to a Depolymerization Induced by Latrunculin B
# 3 days before the experiment, glass coverslips are deposited under sterile conditions in 24-well microplates. In each well, HeLa cells (15 000 cells per well) in the exponential growth phase are seeded in 500 μl of RPMI medium.
# PBS (phosphate buffered saline, ref. P4417, Sigma), PBS/1% BSA (bovine serum albumin, Ref. A3059, Sigma), aliquots of 15 ml, stored at −20° C.; PBS/0.2% Triton X100 (Ref. T8787, Sigma); PBS/0.01% Tween® 20 (Ref. P9916, Sigma); PBS/0.3% BSA/0.02% NaN3 (Ref. for the NaN3: 6688, Merck), aliquots of 15 ml stored at −20° C. Phalloidin A488, (Ref. A12379, Invitrogen). L4: rabbit anti-detyrosinated-tubulin polyclonal antibody (cf. Fonrose et al., Cancer Res., […], 67:3371-3378). Anti-rabbit antibody coupled to Cyanine 3 (Ref. 111.165.144, Jackson Laboratories). […]
IC50 [1] [µM],IC50 [3] [µM],IC50 [4] [µM],SMILES,IC50 [2] [µM],IC50 [5] [µM],Assembly of purified tubulin in vitro [6],Protection of the actin network from depolymerization by latrunculin B [7]
3.05,1.52,3.34,"Cc1c2cc[nH]c(=O)c2c(C)c2c1[nH]c1ccc(OCc3ccccc3)cc12 [Compound 3, 9-benzyloxy-5,11-dimethyl-2H,6H-pyrido[4,3-b]carbazol-1-one]",33.9,13.9,–,–
–,–,–,"CC(=O)O[C@H]1C(=O)[C@@]2(C)[C@H]([C@H](OC(=O)c3ccccc3)[C@]3(O)C[C@H](OC(=O)[C@H](O)[C@@H](NC(=O)c4ccccc4)c4ccccc4)C(C)=C1C3(C)C)[C@]1(OC(C)=O)CO[C@@H]1C[C@@H]2O [paclitaxel, reference compound]",–,–,can induce the assembly of tubulin,Neither DMSO nor paclitaxel (Taxol®) are able to induce such a protective effect
